Measurements reported in paper PMC8156151 (The European Respiratory Journal, 2021).
Where two headings read alike, the source gives them in different places.

How the values were obtained:
Type in all cases: in vivo, human
[1] = Plasma pharmacokinetics, part 2 (IPF patients); settings: for Cmin (plasma concentration at 24 h post-dose): BLQ: below limit of quantification (0.5 ng·mL^−1); for half-life / Cmax / concentration at 24 h / AUC(0-inf): human, plasma, inhaled; for concentration at 24 h: read-out: Cmin (plasma concentration at 24 h post-dose)
Experimental: Full plasma PK profiles were conducted on days 1 (first day of dosing) and 14 (last day of dosing). […] Standard noncompartmental methods were applied to derive PK parameters using Phoenix WinNonlin version 6.3 (Certara, Sheffield, UK). […] Drug compartment measurements in BAL alveolar macrophages and fluid were determined as described previously.

[2] = test system: patients with IPF; test: Safety and tolerability (TEAEs), part 2, once-daily inhaled dose for 14 days
Excerpt: Following completion of dosing for the final subject in each dosing cohort, an interim dose review meeting was held with a safety committee consisting of the principal investigator, medical monitor, pharmacokineticist and statistician to review the safety, tolerability and PK data (study design schematic shown in figure 1). The study statistician and pharmacokineticist were unblinded at the end of each cohort in order to conduct the analyses required for dose review decisions. The primary end-point was the safety and tolerability of single or multiple doses of TD139 in healthy subjects or IPF patients, respectively.

[3] = test system: MMP-1; test: Plasma biomarker MMP-1; settings: for MMP-1 raw data, Mean (SD) / MMP-1 least square means % baseline±SEM: IPF patients
Experimental: (§1) All patients, investigators, sites and study sponsor personnel were blinded to the study group assignments throughout the study. Patients underwent study-specific assessments on days 2, 3, 7, 14 and 15, and a post-study assessment was carried out 26–30 days after the last day of the study period. Assessments included vital signs (supine blood pressure, pulse, oxygen saturation, oral temperature and respiratory rate), spirometry, 12-lead ECG, physical examination, laboratory safety screen (haematology, biochemistry, urinalysis and urinary drugs of abuse screen) and blood sampling for PK measurements. All adverse events and concomitant medications were recorded from the time of the screening visit until the post-study follow-up visit. BAL was performed at day −1 (24 h before the first dose) and at day 14 (2 h after the last dose). The BAL procedure was performed as per international guidelines. Briefly, 240 mL of 0.9% saline at room temperature was instilled in 40 mL aliquots into the right middle lobe and aspirated by suction after each aliquot.
(§2) BAL cells were separated from fluid by centrifugation, and cells were collected, stained with antibodies (supplementary material) and then fixed before analysis using a LSR Fortessa flow cytometer (Becton Dickinson, Franklin Lakes, NJ, USA). Data were analysed using FlowJo software (Tree Star, Ashland, OR, USA). Macrophages were identified as having high side scatter properties and human leukocyte antigen-DR positivity. Gal-3 expression (mean fluorescence intensity) was determined from the macrophage gate (supplementary figures S1 and S2). […] Samples were analysed by magnetic Luminex assay (R&D Systems, Minneapolis, MN, USA) or ELISA.
(§3) For part 2 of the study, placebos were combined from the three dose-specific cohorts into a pooled control group (n=9). For alveolar macrophage Gal-3 expression and the plasma biomarkers, ANCOVA was performed for percentage of baseline ((day 14/day 1)×100). The ANCOVA model included effects for treatment group and baseline (day 1) value. […] An additional analysis including dose as a continuous covariate was also performed. The Pearson correlation coefficient (r) and associated p-value were calculated for percentage of baseline and day 14 values between plasma biomarkers and alveolar macrophage Gal-3 expression. […] The analysis is exploratory and there was no pre-planned adjustment for multiple testing; the study was not powered for this. Alveolar macrophage Gal-3 expression was considered the primary exploratory analysis with the pre-selected biomarkers secondary. A Bonferroni correction for multiple testing of the secondary end-points comparing the 10 mg group with placebo gives a critical value of 0.0063. Data are presented as the difference in least square means with 95% confidence interval and p-value unless otherwise stated. All analyses were performed using SAS version 9.4 (SAS Institute, Cary, NC, USA). […]

[4] = test system: PDGF-BB; test: Plasma biomarker PDGF-BB (Luminex/ELISA); settings: for PDGF-BB raw data, Mean (SD) / PDGF-BB least square means % baseline±SEM: IPF patients
Experimental: as §1, §2, §3

[5] = test system: PDGF-AA; test: Plasma biomarker PDGF-AA; settings: for PDGF-AA raw data, Mean (SD) / PDGF-AA least square means % baseline±SEM: IPF patients
Experimental: as §1, §2, §3

[6] = IPF patients, after 14 days of dosing
[7] = 3 mg, IPF patients, Day 1, 3 mg once daily, mean±SD
[8] = 3 mg, IPF patients, Day 14, 3 mg once daily, mean±SD
[9] = 10 mg, IPF patients, Day 1, 10 mg once daily, mean±SD
[10] = 10 mg, IPF patients, Day 14, 10 mg once daily, mean±SD
[11] = IPF patients, inhaled 0.3 mg once daily 14 days
[12] = IPF patients, inhaled 3 mg once daily 14 days
[13] = IPF patients, inhaled 10 mg once daily 14 days

## OC[C@H]1O[C@@H](S[C@@H]2O[C@H](CO)[C@H](O)[C@H](n3cc(-c4cccc(F)c4)nn3)[C@H]2O)[C@H](O)[C@@H](n2cc(-c3cccc(F)c3)nn2)[C@H]1O [TD139]
[1]; IPF patients, Day 1, 0.3 mg once daily
  Cmin (plasma concentration at 24 h post-dose): BLQ
[1]; IPF patients, Day 14, 0.3 mg once daily
  Cmin (plasma concentration at 24 h post-dose): BLQ
[1]; [6]
  accumulation: ~50%
  increase in AUC0−inf, 10 mg values: 8 fold
  increase in Cmax, 10 mg values: 5 fold
[1]; from T1/2 of ∼8 h and dosing interval of 24 h
  expected accumulation: ~14%
[1]; inhaled or intranasal, overall value, read-out: plasma half-life (T1/2) (converted)
  half-life: 480 min
[1]; 0.3 mg, IPF patients, Day 1, 0.3 mg once daily, mean±SD
  Cmax: 0.55 ± 0.02 ng/mL
[1]; 0.3 mg, IPF patients, Day 14, 0.3 mg once daily, mean±SD
  Cmax: 0.86 ± 0.25 ng/mL
[1]; [7]
  concentration at 24 h: 1.06 ± 0.43 ng/mL
  AUC(0-inf): 69 ± 50 ng·h/mL
  Cmax: 10.6 ± 11.1 ng/mL
[1]; [8]
  concentration at 24 h: 1.48 ± 0.51 ng/mL
  AUC(0-inf): 149 ± 47 ng·h/mL
  Cmax: 16.5 ± 8.34 ng/mL
[1]; 3 mg, IPF patients, Day 1, 3 mg once daily, mean±SD, read-out: T1/2 (converted)
  half-life: 382 ± 125 min
[1]; 3 mg, IPF patients, Day 14, 3 mg once daily, mean±SD, read-out: T1/2 (converted)
  half-life: 415 ± 84 min
[1]; [9]
  concentration at 24 h: 12.9 ± 7.88 ng/mL
  AUC(0-inf): 921 ± 479 ng·h/mL
  Cmax: 56.3 ± 19.3 ng/mL
[1]; [10]
  concentration at 24 h: 14.7 ± 8.64 ng/mL
  AUC(0-inf): 1150 ± 462 ng·h/mL
  Cmax: 82.8 ± 11.8 ng/mL
[1]; 10 mg, IPF patients, Day 1, 10 mg once daily, mean±SD, read-out: T1/2 (converted)
  half-life: 581 ± 102 min
[1]; 10 mg, IPF patients, Day 14, 10 mg once daily, mean±SD, read-out: T1/2 (converted)
  half-life: 492 ± 136 min
[2]; [11]
  Subjects reporting ≥1 TEAE: Serious TEAE: 0 n (%)
  Subjects reporting ≥1 TEAE: TEAE: 4 (80.0) n (%)
  Subjects reporting ≥1 TEAE: TEAE leading to withdrawal: 0 n (%)
  Subjects with TEAE by relationship to study IMP: Almost definite: 0 n (%)
  Subjects with TEAE by relationship to study IMP: Possible: 1 (20.0) n (%)
  Subjects with TEAE by relationship to study IMP: Probable: 0 n (%)
  Subjects with TEAE by relationship to study IMP: Unlikely: 1 (20.0) n (%)
  Subjects with TEAE by relationship to study IMP: Unrelated: 2 (40.0) n (%)
  Subjects with TEAE by severity: Mild: 2 (40.0) n (%)
  Subjects with TEAE by severity: Moderate: 2 (40.0) n (%)
  Subjects with TEAE by severity: Severe: 0 n (%)
  TEAEs: 9 n
[2]; [12]
  Subjects reporting ≥1 TEAE: Serious TEAE: 0 n (%)
  Subjects reporting ≥1 TEAE: TEAE: 5 (100.0) n (%)
  Subjects reporting ≥1 TEAE: TEAE leading to withdrawal: 0 n (%)
  Subjects with TEAE by relationship to study IMP: Almost definite: 0 n (%)
  Subjects with TEAE by relationship to study IMP: Possible: 1 (20.0) n (%)
  Subjects with TEAE by relationship to study IMP: Probable: 0 n (%)
  Subjects with TEAE by relationship to study IMP: Unlikely: 1 (20.0) n (%)
  Subjects with TEAE by relationship to study IMP: Unrelated: 3 (60.0) n (%)
  Subjects with TEAE by severity: Mild: 4 (80.0) n (%)
  Subjects with TEAE by severity: Moderate: 1 (20.0) n (%)
  Subjects with TEAE by severity: Severe: 0 n (%)
  TEAEs: 10 n
[2]; [13]
  Subjects reporting ≥1 TEAE: Serious TEAE: 1 (20.0) n (%)
  Subjects reporting ≥1 TEAE: TEAE: 4 (80.0) n (%)
  Subjects reporting ≥1 TEAE: TEAE leading to withdrawal: 0 n (%)
  Subjects with TEAE by relationship to study IMP: Almost definite: 0 n (%)
  Subjects with TEAE by relationship to study IMP: Possible: 0 n (%)
  Subjects with TEAE by relationship to study IMP: Probable: 0 n (%)
  Subjects with TEAE by relationship to study IMP: Unlikely: 2 (40.0) n (%)
  Subjects with TEAE by relationship to study IMP: Unrelated: 2 (40.0) n (%)
  Subjects with TEAE by severity: Mild: 1 (20.0) n (%)
  Subjects with TEAE by severity: Moderate: 2 (40.0) n (%)
  Subjects with TEAE by severity: Severe: 1 (20.0) n (%)
  TEAEs: 13 n
[2]; IPF patients, multiple inhaled doses up to 10 mg
  safety and tolerability: safe and well tolerated
[2]; part 2, IPF patients
  TEAE profile, biochemistry, haematology, vital signs or 12-lead ECG data: no treatment- or dose-related trends observed
[2]; part 2, diarrhoea and dysgeusia/oropharyngeal pain
  patients with a TEAE considered possibly related to the study drug: two
[3]; 10 mg vs placebo, ANCOVA
  MMP-1 difference in least square means % baseline (95% CI): −102.1 (−251.4–47.3) % baseline
[3]; Day 14, 0.3 mg
  MMP-1 raw data, Mean (SD): 535.1 (449.22) pg/ml
[3]; Day 14, 3 mg
  MMP-1 raw data, Mean (SD): 1494.4 (647.67) pg/ml
[3]; Day 14, 10 mg
  MMP-1 raw data, Mean (SD): 537.5 (257.55) pg/ml
[3]; day 14, 0.3 mg once daily
  MMP-1 least square means % baseline±SEM: 67.3±56.3 % baseline
[3]; day 14, 3 mg once daily
  MMP-1 least square means % baseline±SEM: 107.1±59.1 % baseline
[3]; day 14, 10 mg once daily
  MMP-1 least square means % baseline±SEM: 62.1±58.1 % baseline
[4]; 10 mg vs placebo, ANCOVA
  PDGF-BB difference in least square means % baseline (95% CI): −239.5 (−384.8– −94.2) % baseline
[4]; Day 14, 0.3 mg
  PDGF-BB raw data, Mean (SD): 1519 (1034.92) pg/ml
[4]; Day 14, 3 mg
  PDGF-BB raw data, Mean (SD): 2201.9 (2935.52) pg/ml
[4]; Day 14, 10 mg
  PDGF-BB raw data, Mean (SD): 1131.4 (1190.78) pg/ml
[4]; day 14, 0.3 mg once daily
  PDGF-BB least square means % baseline±SEM: 90.5±55.2 % baseline
[4]; day 14, 3 mg once daily
  PDGF-BB least square means % baseline±SEM: 103.7±54.1 % baseline
[4]; day 14, 10 mg once daily
  PDGF-BB least square means % baseline±SEM: 35.7±54.2 % baseline
[5]; 10 mg vs placebo, ANCOVA
  PDGF-AA difference in least square means % baseline (95% CI): −129.7 (−295.3–35.8) % baseline
[5]; Day 14, 0.3 mg
  PDGF-AA raw data, Mean (SD): 1299.7 (754.57) pg/ml
[5]; Day 14, 3 mg
  PDGF-AA raw data, Mean (SD): 4075.9 (5511.46) pg/ml
[5]; Day 14, 10 mg
  PDGF-AA raw data, Mean (SD): 2556.7 (987.79) pg/ml
[5]; day 14, 0.3 mg once daily
  PDGF-AA least square means % baseline±SEM: 61.7±60.6 % baseline
[5]; day 14, 3 mg once daily
  PDGF-AA least square means % baseline±SEM: 117.1±62.1 % baseline
[5]; day 14, 10 mg once daily
  PDGF-AA least square means % baseline±SEM: 83.6±61.2 % baseline
